Data set [1] can be described thus: Body weight and food intake, balance study. Particulars: 15 wk diet. It counts as in vivo, rat. The procedure: The remaining pups were weaned, singly housed, continued on the diet of their respective dam for 15 weeks, and were allocated to either the balance study (n = 11), the steady-state infusion study (n = 4), or the brain DHA uptake study (n = 3). For the balance study, the rats were weighed, food intake was determined, and uneaten food was replaced with fresh food on a weekly basis. Rats were euthanized by CO2 asphyxiation. Brains were removed and dissected sagittally. Carcasses and one half brain per rat were stored immediately at −80°C (to be later analyzed for lipid content). The other half brain was flash-frozen with 2-methylbutane on dry ice, and then stored at −80°C until analyzed for mRNA expression. The PUFA content in the brains and bodies of these rats after the 15 week feeding period was compared with the baseline PUFA content (described above) to determine PUFA accretion (equation 1, described below). For the steady-state infusion study and the brain DHA uptake study, a jugular vein catheter was surgically implanted into the rats. After allowing a 24 h recovery, rats were infused with ^2H14-ALA or ^14C-DHA, respectively (described below). The ^2H14-ALA infusion was used to determine DHA synthesis rates following a previously published method ([24]) and the ^14C-DHA infusion was utilized to measure the brain DHA uptake rate by following previously published methods ([26]).

On data set [2], the source says:
At 15 weeks postweaning, rats were subjected to surgery to implant a catheter into their jugular vein. The animals were anesthetized using isoflurane inhalation (5% induction, 1–3% maintenance). Before the incision was made, hair was shaved from the incision site and the site was sterilized with iodine and ethanol. A transverse incision was made anterior to the upper thorax. The jugular vein was located by blunt dissection. The vein was isolated and tied off. The vein was then nicked and a catheter (PE 50; Intramedic, Sparks, MD) with a 3.5 cm silastic tubing end (VWR, Mississauga, ON, Canada) was inserted into the vein. The catheter was secured using 3.0 silk sutures and a 16 gauge Angiocath (Becton Dickinson, Mississauga, ON, Canada) was used to guide the catheter subcutaneously to a site outside the body near the scapula. An incision was made at this site and the catheter was tucked beneath the skin at the incision site. The incision site was stapled to protect the catheter from the rats. The incision site on the chest was closed with 4.0 silk sutures and the rats were allowed to recover from the anesthetic under a heat lamp. Approximately 24 h after the surgery, the tail vein of the rats was cannulated with a 24 gauge Angiocath (Becton Dickinson). While the rats were restrained, the staple closing the incision site on the scapula was removed and the jugular vein catheter was connected to a longer polyethylene catheter. The rats were then placed in an infusion box that contained food, a chew toy, and bedding from the rat's cage. The tail vein catheter was then connected to an infusion line. Rats were able to move freely within the infusion box throughout the infusion.
Modified from the method of Rapoport, Igarashi, and Gao ([38]); 4.5 μmol/100 g body weight of ^2H-ALA (^2H14-ALA, purity >95% confirmed by GC-FID and GC-MS; Cayman Chemical, Ann Arbor, MI) was infused into the tail vein for 3 h. To prepare the infusate, a known amount of ^2H-ALA was dissolved in 5 mM HEPES buffer (pH 7.4) containing 50 mg/ml fatty acid-free BSA. The infusate was mixed by sonication at 37°C. An infusion pump (Harvard Apparatus PHD 2000; Holliston, MA) was used to infuse 3.78 ml of tracer solution at a constant rate of 0.021 ml/min for 3 h. Immediately before the infusion and every 30 min during the infusion 0.2 ml of blood was drawn from the jugular vein. The jugular vein catheter was flushed with heparinized saline (5% by volume) after every blood draw to prevent coagulation in the line. After 180 min of the infusion, 1 ml of blood was drawn from the jugular vein and the animals were euthanized with a lethal injection of T-61 into the tail vein. All blood samples were centrifuged for 10 min (PC-100 microcentrifuge; Diamed, ON, Canada) and the plasma was collected and stored at −80°C.
Plasma volume was determined using the method of Schreihofer, Hair, and Stepp as modified by Gao et al.([24], [39]). Briefly, a known amount of Evans Blue dye was injected into the tail veins of the rats. After 15 min, 1 ml of blood was drawn from the jugular vein, twice. The plasma was collected as described above, and 0.1 ml of plasma was diluted into 1 ml of saline. Absorbance at 604 nm was measured with a Nanodrop 1000 and by comparing the absorbance to a standard curve, the concentration of the dye was determined.
Fifty microliters of plasma were added to a test tube which contained known amounts of unesterified 17:0 standard and di-17:0 phosphatidylcholine standard. Lipids were extracted from the plasma using the method of Folch, Lees, and Sloane Stanley ([28]), as described above.
Thin layer chromatography (TLC) was used to separate esterified and unesterified lipids. The TLE was dried under N2 and reconstituted in 250 μl chloroform. TLC plates (TLC silica gel 60, EMD) that were washed in chloroform and methanol (2:1) were activated by heat at 100°C for 1 h.

For a further data set, the system named is heme oxygenase 1. Put plainly: Brain gene expression (TLDA qPCR). Format: in vivo, rat. Particulars: 15 wk diet; control diet = 1. Here is the method:
RNA was extracted from the flash-frozen half brains of the 15 week postweaning rats. The brain was briefly thawed and dissected to isolate the brainstem, cerebellum, cortex, hippocampus, striatum, and the rest of the brain. RNA was extracted from the brain regions using Trizol reagent (Ambion; Life Technologies, Burlington, ON, Canada) according to the manufacturer's protocol. […] Chloroform was added to the Trizol reagent at a ratio of 1:5 (chloroform:Trizol reagent) and the solution was mixed and incubated at room temperature. The solution was then centrifuged at 12,000 g for 15 min at 4°C. […] The samples were then centrifuged at 12,000 g for 10 min at 4°C to precipitate the RNA pellet. […] The pellet was allowed to air dry, and was then dissolved in RNase-free water. A Nanodrop 1000 (NanoDrop Technologies Inc., Wilmington, DE) was used to determine the concentration and purity of each sample by measuring absorbance at 260 and 280 nm. Each sample was aliquoted to make 1 μg of RNA per 10 μl of sample and stored at -80°C. A high-capacity cDNA reverse transcription kit (Applied Biosystems, Burlington, ON, Canada) was used to reverse transcribe 1 μg of RNA according to the manufacturer's instructions. Newly synthesized cDNA was stored at -20°C until the following day when it was loaded onto TaqMan low density array (TLDA) plates. Quantitative real-time PCR was performed using TLDA (Applied Biosystems) on the 7900HT real-time PCR system (Applied Biosystems). cDNA (50 ng) was diluted with water to make a volume of 50 μl and mixed with 50 μl of TaqMan Universal PCR Master Mix (Applied Biosystems). The mixture was then loaded onto a customized preconfigured 384-well TLDA plate according to the manufacturer's protocol. TaqMan gene expression assays were used to assess 21 genes that were previously reported to be differentially expressed with n-3 deprivation. […] All genes were normalized to phosphoglycerate kinase 1. Similar results were found when normalizing to β-actin or 18S rRNA.
For orientation: Quantitative PCR measures a nucleic acid by following its amplification.

Take `CC/C=C\C/C=C\C/C=C\C/C=C\C/C=C\C/C=C\CCC(=O)O` [DHA, Docosahexaenoic acid]: in data set [1], the “Mean body weight at 15 weeks” value is on record as 724 ± 18 g. Moreover, the “Reduction of DHA synthesis by 2% dietary DHA” value in data set [2] (synthesis rate not quantifiable in DHA-fed rats) is on record as “greater than 30 fold”. Moreover, in the data set on heme oxygenase 1, the “Brainstem gene expression: HO1” value is 0.99 RQ, the “Cerebellum gene expression: HO1” value was determined as 0.99 RQ, the “Cortex gene expression: HO1” value came out at 1.11 RQ and the “Hippocampus gene expression: HO1” value is reported as 1.03 RQ. Moreover, in the data set with heme oxygenase 1, the “Rest of brain gene expression: HO1” value worked out at 1.04 RQ and the “Striatum gene expression: HO1” value is recorded as 0.94 RQ.
With `CC/C=C\C/C=C\C/C=C\CCCCCCCC(=O)O` [ALA, α-linolenic acid], in data set [1], the “Mean body weight at 15 weeks” value was determined as 673 ± 25 g. Also, the “Mean plasma [^2H-ALA]unesterified during infusion” value in data set [2] (4.5 μmol/100 g ^2H-ALA i.v. over 3 h) was determined as 2.5 ± 0.5 nmol/mL. Further, in data set [2] (15 wk diet, 3 h ^2H-ALA infusion, n = 4), the “Smax,i (maximum first derivative)” value stood at 0.339 ± 0.135 nmol/min. Moreover, in data set [2] (15 wk diet, n = 4), the “Daily Secretion Rate (daily DHA synthesis rate)” value worked out at 1452 ± 395 nmol/day, the “FDHA (turnover rate of esterified plasma DHA)” value was 0.0002 ± 4e-05 min⁻¹, the “Jsyn (synthesis rate of DHA from ALA)” value amounted to 1.008 ± 0.274 nmol/min and the “k1,DHA (synthesis-secretion coefficient for DHA synthesis from ALA)” value is 0.131 ± 0.04 mL/min. Also, the “DHA synthesis rate relative to brain DHA uptake rate” value in data set [2] (ALA-fed rats, infusion synthesis vs ^14C-DHA uptake) is listed as “approximately 3 fold”. Besides, the “DHA synthesis rate from ALA (steady-state infusion)” value in data set [2] (at 15 weeks postweaning) was determined as 1.5 µmol/day. In the data set with heme oxygenase 1, the “Brainstem gene expression: HO1” value worked out at 1.01 RQ, the “Cerebellum gene expression: HO1” value is 1.21 RQ, the “Cortex gene expression: HO1” value was found to be 1.05 RQ and the “Hippocampus gene expression: HO1” value came to 1.01 RQ. Further, in the data set with heme oxygenase 1, the “Rest of brain gene expression: HO1” value amounted to 1.00 RQ and the “Striatum gene expression: HO1” value is 1.09 RQ.

The values above are taken from publication PMC3927474, “Whole body synthesis rates of DHA from α-linolenic acid are greater than brain DHA accretion and uptake rates in adult rats” (Journal of Lipid Research, 2014).
